According to EP4813979A1, “COMPOUND FOR EGFR PROTEIN DEGRADATION AND USE THEREOF” (TYK Medicines, Inc., priority 2023, dated 2025):
Read-outs that look alike come from different tables or passages of the source.

How the values were obtained:
[1] = Pharmacokinetic tests in male SD rats; type: in vivo; conditions: oral gavage (po), 10 mg/kg, plasma; for AUC(0-inf) / AUC(0-t) / Cmax / MRT last / Tmax: rat
Method in brief: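 Fasted male SD rats (n=3) dosed 10 mg/kg by oral gavage as 1 mg/mL solution in 10% DMSO/90% 0.5% MC. Tail-vein EDTA plasma sampled 0.5–24 h, parent drug quantified by LC-MS/MS; AUC, T1/2, Cmax, Tmax by non-compartmental analysis.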

[2] = molecular target: EGFR in Baf3-L858R-T790M-C797S (Homo sapiens, UniProt P00533, C797S/L858R/T790M); assay: EGFR PROTAC HTRF experiment (total EGFR degradation); type: cell-based
Method in brief: (§1)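 Ba/F3 clones stably expressing EGFR L858R/T790M/C797S or del19/T790M/C797S were treated with compound; total EGFR measured by HTRF with Eu and d2 antibodies. DC50 and Dmax derived from fitted curves.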

[3] = molecular target: EGFR in Baf3-19del-T790M-C797S (Homo sapiens, UniProt P00533, C797S/DEL746-750/T790M); assay: as above; type: cell-based
Method in brief: as §1

[4] = Baf3-LTC, incubated 16 hours, HTRF total EGFR; read-out: Baf3-LTC DC50
[5] = Baf3-DTC, incubated 16 hours, HTRF total EGFR; read-out: Baf3-DTC DC50
[6] = Baf3-LTC, incubated 16 hours, HTRF total EGFR; read-out: Baf3-LTC Dmax
[7] = Baf3-DTC, incubated 16 hours, HTRF total EGFR; read-out: Baf3-DTC Dmax

EGFR in Baf3-L858R-T790M-C797S, sequence (P00533 25-1210 T790M/C797S/L858R): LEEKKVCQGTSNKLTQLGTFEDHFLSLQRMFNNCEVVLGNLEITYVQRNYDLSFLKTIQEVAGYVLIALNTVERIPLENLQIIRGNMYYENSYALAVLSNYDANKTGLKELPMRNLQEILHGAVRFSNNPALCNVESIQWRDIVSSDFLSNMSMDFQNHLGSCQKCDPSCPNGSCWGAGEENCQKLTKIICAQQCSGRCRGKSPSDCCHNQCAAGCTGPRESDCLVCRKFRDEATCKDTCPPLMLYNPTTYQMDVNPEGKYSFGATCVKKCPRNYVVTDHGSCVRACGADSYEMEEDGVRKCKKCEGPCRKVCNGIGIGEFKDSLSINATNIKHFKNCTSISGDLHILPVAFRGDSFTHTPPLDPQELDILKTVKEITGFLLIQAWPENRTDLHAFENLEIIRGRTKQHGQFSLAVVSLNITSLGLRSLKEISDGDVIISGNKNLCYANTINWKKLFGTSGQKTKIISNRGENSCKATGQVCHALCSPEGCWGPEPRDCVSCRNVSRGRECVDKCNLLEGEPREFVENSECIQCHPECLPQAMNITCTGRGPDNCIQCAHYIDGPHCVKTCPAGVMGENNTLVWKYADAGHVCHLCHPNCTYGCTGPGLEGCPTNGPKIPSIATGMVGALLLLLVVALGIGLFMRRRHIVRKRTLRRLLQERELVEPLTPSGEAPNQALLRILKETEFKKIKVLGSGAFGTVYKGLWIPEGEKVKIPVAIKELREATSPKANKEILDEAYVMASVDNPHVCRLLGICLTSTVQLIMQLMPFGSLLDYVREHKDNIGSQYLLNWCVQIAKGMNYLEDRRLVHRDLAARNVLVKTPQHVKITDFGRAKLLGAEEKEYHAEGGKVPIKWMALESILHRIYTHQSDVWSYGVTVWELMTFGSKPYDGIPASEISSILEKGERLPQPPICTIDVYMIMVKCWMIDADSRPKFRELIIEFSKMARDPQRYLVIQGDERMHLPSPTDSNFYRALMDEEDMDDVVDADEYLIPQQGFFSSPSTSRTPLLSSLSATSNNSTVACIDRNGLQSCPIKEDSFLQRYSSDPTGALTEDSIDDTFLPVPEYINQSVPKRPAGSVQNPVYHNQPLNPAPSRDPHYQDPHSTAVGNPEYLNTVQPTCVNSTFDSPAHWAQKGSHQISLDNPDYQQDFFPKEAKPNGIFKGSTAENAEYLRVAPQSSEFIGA
EGFR in Baf3-19del-T790M-C797S, sequence (P00533 with tags, fused parts or gaps DEL746-750/T790M/C797S): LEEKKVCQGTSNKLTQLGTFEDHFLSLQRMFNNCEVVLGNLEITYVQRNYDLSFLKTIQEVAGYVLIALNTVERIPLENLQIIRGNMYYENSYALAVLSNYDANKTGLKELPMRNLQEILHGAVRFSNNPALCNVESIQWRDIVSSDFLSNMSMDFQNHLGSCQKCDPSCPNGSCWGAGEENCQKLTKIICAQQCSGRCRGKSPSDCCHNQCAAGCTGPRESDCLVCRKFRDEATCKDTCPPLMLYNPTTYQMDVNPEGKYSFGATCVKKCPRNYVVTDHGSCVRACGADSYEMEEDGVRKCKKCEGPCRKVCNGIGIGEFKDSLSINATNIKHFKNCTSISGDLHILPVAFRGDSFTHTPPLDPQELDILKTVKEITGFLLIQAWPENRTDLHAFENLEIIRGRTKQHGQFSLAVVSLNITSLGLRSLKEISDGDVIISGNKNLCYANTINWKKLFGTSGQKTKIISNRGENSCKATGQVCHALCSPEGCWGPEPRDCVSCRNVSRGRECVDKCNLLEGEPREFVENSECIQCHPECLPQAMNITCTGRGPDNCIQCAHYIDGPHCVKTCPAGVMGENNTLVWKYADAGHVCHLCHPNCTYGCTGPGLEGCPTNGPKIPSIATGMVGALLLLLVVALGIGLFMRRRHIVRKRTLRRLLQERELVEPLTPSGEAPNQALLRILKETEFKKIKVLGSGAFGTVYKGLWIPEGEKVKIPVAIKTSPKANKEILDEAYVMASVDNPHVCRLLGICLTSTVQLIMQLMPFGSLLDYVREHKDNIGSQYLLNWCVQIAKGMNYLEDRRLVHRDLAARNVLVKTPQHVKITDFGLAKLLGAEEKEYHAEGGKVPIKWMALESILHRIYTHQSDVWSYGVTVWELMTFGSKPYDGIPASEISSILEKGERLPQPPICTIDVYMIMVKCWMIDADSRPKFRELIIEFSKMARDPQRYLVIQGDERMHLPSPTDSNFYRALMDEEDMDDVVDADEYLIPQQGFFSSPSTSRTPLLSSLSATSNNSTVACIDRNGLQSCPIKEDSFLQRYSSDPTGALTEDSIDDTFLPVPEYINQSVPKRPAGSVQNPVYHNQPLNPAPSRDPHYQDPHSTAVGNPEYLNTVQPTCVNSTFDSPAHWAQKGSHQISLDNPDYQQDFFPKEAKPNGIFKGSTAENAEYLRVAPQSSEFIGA

Row | Structure (SMILES) | HL [1] [h] | AUC(0-inf) [1] [ng·h/mL] | AUC(0-t) [1] [ng·h/mL] | Cmax [1] [ng/mL] | MRT last [1] [h] | Tmax [1] [h] | DC50 [2, 4] [nM] | Dmax ([2]; read-out: Baf3-LTC Dmax) [%] | DC50 [3, 5] [nM] | Dmax ([3]; read-out: Baf3-DTC Dmax) [%] | Dmax [2, 6] [%] | Dmax [3, 7] [%] | DC50 ([2]; read-out: Baf3-LTC DC50; Baf3-LTC, incubated 16 hours, HTRF total EGFR) [nM] | DC50 ([3]; read-out: Baf3-DTC DC50; Baf3-DTC, incubated 16 hours, HTRF total EGFR) [nM]
1 | CCc1cc(Nc2ncc(Cl)c(Nc3ccccc3P(C)(C)=O)n2)c(OC)cc1N1CCN(C(=O)CN2CCC(c3cc4c(cc3F)c(N3CCC(=O)NC3=O)nn4C)C(F)(F)C2)CC1 (centres unmarked) [TC-157] | 2.66 | 5800 | 7530 | 768 | 5.52 | 3.33 | < 10 | 70 to 100 | < 10 | 70 to 100 |  |  |  | 
2 | COc1cc(N2CCC(CN3CCN(c4ccc5c(c4)C(=O)N(C4CCC(=O)NC4=O)C5=O)CC3)CC2)c(-c2cnn(C)c2)cc1Nc1ncc(Br)c(Nc2ccc(C3CC3)cc2P(C)(C)=O)n1 (centres unmarked) [DZL-1, reference compound] | 3.08 | 8460 | 8070 | 699 | 6.11 | 4 | 10 to 100 |  | 10 to 100 |  | 70 to 100 | 70 to 100 |  | 
3 | CCc1cc(Nc2ncc(Cl)c(Nc3ccccc3P(C)(C)=O)n2)c(OC)cc1N1CC2(CCN(C(=O)CN3CCC(c4cc5c(cc4F)c(N4CCC(=O)NC4=O)nn5C)C(F)(F)C3)CC2)C1 (centres unmarked) [TA-023] | 3.99 | 3980 | 3920 | 580 | 5.1 | 2 | 10 to 100 |  | 10 to 100 |  | 70 to 100 | 70 to 100 |  | 
4 | CCc1cc(Nc2ncc(Cl)c(Nc3ccccc3P(C)(C)=O)n2)c(OC)cc1N1CCN(C(=O)CN2CCC(c3cc4c(cc3F)c(N3CCC(=O)NC3=O)nn4C)CC2)CC1 [TC-213] | 3.48 | 8150 | 8070 | 742 | 6.22 | 4 | 10 to 100 |  | 10 to 100 |  | 70 to 100 | 70 to 100 |  | 
5 | CCc1cc(Nc2ncc(Cl)c(Nc3ccccc3C(=O)NC)n2)c(OC)cc1N1CCN(C(=O)CN2CCC(c3cc4c(cc3F)c(N3CCC(=O)NC3=O)nn4C)C(F)(F)C2)CC1 (centres unmarked) [TA-003] | 3.22 | 3800 | 3770 | 441 | 5.63 | 2 |  | 70 to 100 |  | 70 to 100 |  |  | 10 to 100 | 10 to 100
